Laboratory results reported in PubChem BioAssay (NCI).
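All cell lines were grown in 96-well plates and treated with compound for 48 hours. At the GI50, growth is halved. TGI is the concentration that stops growth completely.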

Tests used:
Assay in all cases: inhibition of tumour cell growth, NCI panel, 48 h
SNB-78 CNS = tested on: SNB-78 CNS
HL-60(TB) leukemia = tested on: HL-60(TB) leukemia
EKVX NSCLC = tested on: EKVX NSCLC
U251 CNS = tested on: U251 CNS
KM20L2 colon = tested on: KM20L2 colon
HOP-62 NSCLC = tested on: HOP-62 NSCLC
HCC-2998 colon = tested on: HCC-2998 colon
SK-MEL-28 melanoma = tested on: SK-MEL-28 melanoma
MALME-3M melanoma = tested on: MALME-3M melanoma

SMILES	TGI (SNB-78 CNS) [µM]	TGI (HL-60(TB) leukemia) [µM]	TGI (EKVX NSCLC) [µM]	TGI (U251 CNS) [µM]	TGI (KM20L2 colon) [µM]	TGI (HOP-62 NSCLC) [µM]	TGI (HCC-2998 colon) [µM]	TGI (SK-MEL-28 melanoma) [µM]	TGI (MALME-3M melanoma) [µM]	GI50 (SK-MEL-28 melanoma) [µM]	GI50 (HL-60(TB) leukemia) [µM]	GI50 (EKVX NSCLC) [µM]	GI50 (U251 CNS) [µM]	GI50 (MALME-3M melanoma) [µM]	GI50 (HOP-62 NSCLC) [µM]	GI50 (HCC-2998 colon) [µM]
C=CCN1/C(=C2\SC(=S)N(c3ccc(C)cc3)C2=O)Sc2c1ncn(C)c2=O	> 100	> 100	> 100	> 100	> 100	> 100	> 100									
N/N=C(\c1nc2ccc(Cl)cc2[nH]c1=O)C(O)c1ccc(Cl)c(Cl)c1 (stereo not drawn)	> 100	> 100	> 100	> 100	> 100	> 100	> 100	> 100	> 100							
Cc1cc(C)c(C(=O)O)c(SSc2cc(C)cc(C)c2C(=O)O)c1	> 100	> 100	> 100	> 100	> 100	> 100		> 100	> 100							
COC(=O)[C@@H](C)[C@H]1CC[C@@](C)(CCC2=C(C)CC3C=C(C)CCC3C2(C)C)OO1 (stereo partly drawn)	4.76	0.449	3.03	2.73	3.13	3.72	2.65	3.22	3.96							
COc1ccc2oc(-c3ccc(OC)c(OC)c3OC)cc(=O)c2c1		55	> 100		63.1	> 100	> 100	> 100	> 100							
COc1cc(C(C)c2cc3c(cc2OCCNC(=O)COc2cc4c(cc2C(C)c2cc(OC)c(OC)c(OC)c2)OCO4)OCO3)cc(OC)c1OC (stereo not drawn)		> 100	> 100	> 100	> 100	> 100	> 100	> 100	> 100							
COc1cc(NS(C)(=O)=O)ccc1NCc1c2ccccc2nc2ccccc12		47.4	> 100	> 100	> 100		> 100	> 100	> 100							
O=C(C#Cc1ccccc1)C1=Cc2ccccc2OC1		> 100	6.12	> 100		29.3	19.6	> 65.7	13.2							
CN(C)CCCC1(c2ccc(F)cc2)OCc2cc(-c3cc4ccccc4s3)ccc21 (stereo not drawn)		3.39	3.07	3.02		3	3.11	3.22	2.98	1.81	1.76	1.66	1.63	1.54	1.6	1.67
Cc1ccc(S(=O)(=O)C2=c3nc4ccccc4cc3=C3C(=O)c4ccccc4C(=O)C32)cc1 (stereo not drawn)		> 100	> 100	> 100	> 100	> 100	> 100	> 100	> 100							
Clc1ccc2nc(CI)c(CI)nc2c1		9.06	40.9	7.23		> 56.3	30.3	27.7	3.83	14.4	1.23	13.6	2.71	1.75	28.7	15.7
Cc1c(Cl)cccc1NC(=O)/C=C/c1ccccc1		> 100	> 100	> 100		> 100	> 100	> 100	> 100							
N#C/C(=N\Nc1ccccc1)C(=O)Nc1cc(-c2ccccc2)nn1-c1ccccc1		22.1	> 100	16		49.9	> 100	> 100	> 100	3.78	2.94	2.93	3.14	2.84	2.84	3.81
C[C@]12CC[C@H]3[C@@H](CC4SC(N)=NC45C/C(=N/NC(N)=O)CC[C@]35C)[C@@H]1CCC2=O (stereo partly drawn)		7.95	3.63	3.22		3.47	3.28	3.1	3.49	1.63	2.73	1.8	1.77	1.76	1.84	1.74
C[n+]1c2ccccc2nc2ccccc21		> 16.1	7.96	3.09		10.7	7.22	3.1	2.7	1.59	1.74	1.69	1.44	1.22	3.66	2.11
CCOC(=O)C1=C(C)N(NC(N)=O)C2(N)N(NC(N)=O)C(C)=C(C(=O)OCC)C12C(=O)OCC (stereo not drawn)			> 100	> 100	> 100	> 100	> 100	> 100	> 100							
O=C(/C=C1\C(=O)N(Cc2ccccc2)c2ccccc21)c1ccc(OCCN2CCCCC2)cc1		4.39	7.48	3.35		32.4	3.47	4.36	3.39	2.09	1.71	2.36	1.91	1.71	18.4	1.86
